IC50 data for eleven molecules are collected here from patent US9708275B2, “Heterocyclic compounds and methods for their use” (Novartis AG, priority 2012, dated 2017).

In general, IC50 refers to the concentration that gives 50% inhibition. Low readings indicate greater potency in that assay, high ones weaker potency in that assay.

Sequence of AT2 receptor (P50052 whole entry, species assumed): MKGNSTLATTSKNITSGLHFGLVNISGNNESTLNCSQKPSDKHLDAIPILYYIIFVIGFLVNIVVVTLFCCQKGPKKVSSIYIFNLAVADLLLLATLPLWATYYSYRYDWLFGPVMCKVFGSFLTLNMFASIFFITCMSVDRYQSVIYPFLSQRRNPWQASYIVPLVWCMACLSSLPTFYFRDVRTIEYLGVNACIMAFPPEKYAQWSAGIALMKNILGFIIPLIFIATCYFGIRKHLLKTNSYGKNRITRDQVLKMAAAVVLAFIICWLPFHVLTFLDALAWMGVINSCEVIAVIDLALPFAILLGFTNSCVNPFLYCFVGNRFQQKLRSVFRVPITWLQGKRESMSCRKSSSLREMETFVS

This assay addresses AT2 receptor (Homo sapiens (Human), UniProt P50052). Put plainly: AT2 receptor binding assay ([125I]-CGP42112A, HEK293/AT2 receptor cell membranes). The following applies: displacement of [125I]-CGP42112A, RT 1.5 hrs. Here is the method: 1. Trypsin-EDTA (for preparation of 100 mL) • Trypsin 0.25 g • 2% EDTA 2 mL • PBS 98 mL • Dissolve trypsin in 2% EDTA and PBS completely; sterilize the solution by passing through a […] membrane filter; store at 4° C.
2. DMEM medium (for preparation of 1 L) • The powder was dissolved into 950 mL of distilled water with gentle stirring until the solution becomes clear. • Add NaHCO3 1.176 g for DMEM medium. • Adjust pH of medium to 0.2-0.3 below final working pH using 1 M NaOH or 1 M HCl. Add slowly with stirring. • Dilute to 1 liter with ddH2O. • Sterilize the medium immediately by filtration. • Store at 4° C.
3. TE buffer • 20 mM Tris-HCl, pH 7.4, • 5 mM EDTA
4. Binding Assay Buffer • 50 mM Hepes, pH 7.4 • 5 mM MgCl2 • 1 mM CaCl2 • 0.2% BSA
5. Wash Buffer • 50 mM Hepes, pH 7.4 Procedures for HEK293/AT2 Receptor Transient Cell Transfection • Cells were plated into 150 mm dish at 50% density for transient transfection. Cells were ready for transfection after overnight incubation (the confluence reaches around 80%). • 75 μL Lipofectamine™2000 diluted in 6.25 mL OptiMEM I Reduced Serum Medium, was mixed gently, and incubated at room temperature for 5 minutes. 50 μg expression plasmid DNA diluted in 6.25 mL OptiMEM I Reduced Serum Medium without serum was mixed gently. • After the 5 minute incubation, the diluted DNA was combined with the diluted Lipofectamine™2000 (total volume is 12.5 mL). The mixture was mixed gently and incubated for 30 minutes at room temperature to allow the DNA-Lipofectamine™2000 complexes to form. • The 12.5 mL DNA-Lipofectamine™2000 complexes were added into the 150 mm dish and mixed gently by rocking the dish back and forth. • The cells were incubated at 37° C. with 5% CO2 for 48 hours. • Cells were collected and stored frozen at −80° C. Procedures for HEK293/AT2 Receptor Cell Membrane Preparation • Frozen HEK293/AT2 receptor (transient transfected) cells were homogenized in ice cold TE buffer for 10 s. • The homogenate was centrifuged at 25,000 g for 30 minutes. • The pellet was resuspended in ice cold tissue buffer. • Protein concentrations were determined using Bradford assay method with BSA as standard. • The membrane protein was frozen under −80° C. Compound Preparation
Solutions of all compounds were prepared by microplate liquid handling equipment such as Janus or Precision 2000. Compounds, dissolved in DMSO were stored in a Freezer. Compounds were prepared from 30 mM in 100% DMSO.
Step 1: Dose plate preparation (96 well plate)
• Add the 3 μL [30 mM] compound stock to column 1 on the plate. • Add 15 μL of 100% DMSO to column 1. • Add 10.81 μL of 100% DMSO to column 2-12. • Transfer 5 μL from column 1 into column 2 (half log dilution). • Transfer 5 μL from column 2 into column 3 (half log dilution). • Transfer 5 μL from column 3 into column 4 (half log dilution). • Transfer 5 μL from column 4 into column 5 (half log dilution). • Transfer 5 μL from column 5 into column 6 (half log dilution). • Transfer 5 μL from column 6 into column 7 (half log dilution). • Transfer 5 μL from column 7 into column 8 (half log dilution). • Transfer 5 μL from column 8 into column 9 (half log dilution). • Transfer 5 μL from column 9 into column 10 (half log dilution) • Transfer 5 μL from column 10 into column 11 (half log dilution) • Transfer 5 μL from column 11 into column 12 (half log dilution).
All the compounds were diluted using Precision 2000 microplate liquid handling equipment. The top concentration of compound was 5 mM with 100% DMSO.
Step 2: Working plate preparation (96 well plate)
• Compounds were diluted 50-fold with buffer. • 49 μL buffer was added to the well of 96 well plate. • 1 μL compound solution from dose plate was transferred to the corresponding well of working plate. • The top concentration of compound was 100 μM with 2% DMSO. Step 3: Assay plate preparation (96 well plate)
15 μL of compound solution was transferred from each well of working plate to the well of assay plate by Janus. […]
For orientation: Displacement assays read how much labelled ligand stays bound in the presence of the test substance.
`O=C(O)[C@@H]1CN(c2cc(C(F)(F)F)nn2Cc2ccccc2)CCN1C(=O)C(c1ccccc1)c1ccccc1` [Compound 23, (S)-4-(1-benzyl-3-(-trifluoromethyl)-1H-pyrazol-5-yl)-1-(2,2-diphenylacetyl)piperazine-2-carboxylic acid]: the IC50 is 93.8 nM.
Molecule `O=C(O)[C@@H]1CN(Cc2ccccc2)CCN1C(=O)C(c1ccccc1)c1ccccc1` [Compound 5, (S)-4-benzyl-1-(2,2-diphenylacetyl)piperazine-2-carboxylic acid] displayed a 50% inhibitory concentration (IC50) of 383 nM.
In turn, `O=C(O)[C@@H]1CN(c2ccccc2)CCN1C(=O)C(c1ccccc1)c1ccccc1` [Compound 4, (S)-1-(2,2-diphenylacetyl)-4-phenylpiperazine-2-carboxylic acid] displayed a 50% inhibitory concentration (IC50) of 408 nM.
Molecule `O=C(O)[C@@H]1CN(CCC#Cc2ccccc2)CCN1C(=O)C(c1ccccc1)c1ccccc1` [Compound 26, (S)-1-(2,2-diphenylacetyl)-4-(4-phenylbut-3-yn-1-yl)piperazine-2-carboxylic acid] registered an IC50 of 1320 nM.
In turn, `O=C(O)[C@@H]1CN(c2cc(-c3ccccc3)n(-c3ccccc3)n2)CCN1C(=O)C(c1ccccc1)c1ccccc1` [Compound 6, (S)-4-(1,5-diphenyl-1H-pyrazol-3-yl)-1-(2,2-diphenylacetyl)-piperazine-2-carboxylic acid] showed a half-maximal inhibitory concentration (IC50) of 3040 nM.
`O=C(O)[C@@H]1CN(CCc2ccccc2)CCN1C(=O)C(c1ccccc1)c1ccccc1` [Compound 8, (S)-1-(2,2-diphenylacetyl)-4-phenethylpiperazine-2-carboxylic acid] showed an IC50 of 1270 nM.
For `O=C(O)[C@@H]1CN(CCCc2ccccc2)CCN1C(=O)C(c1ccccc1)c1ccccc1` [Compound 10, (S)-1-(2,2-diphenylacetyl)-4-(3-phenylpropyl)piperazine-2-carboxylic acid] the value was 517 nM.
`O=C(O)[C@@H]1CN(CC#Cc2ccccc2)CCN1C(=O)C(c1ccccc1)c1ccccc1` [Compound 24, (S)-1-(2,2-diphenylacetyl)-4-(3-phenylprop-2-yn-1-yl)piperazine-2-carboxylic acid]: the half-maximal inhibitory concentration (IC50) came to 4160 nM.
Consider `O=C(O)[C@@H]1CN(C/C=C/c2ccccc2)CCN1C(=O)C(c1ccccc1)c1ccccc1` [Compound 9, (S)-4-cinnamyl-1-(2,2-diphenylacetyl)piperazine-2-carboxylic acid], for which the half-maximal inhibitory concentration (IC50) worked out at 4100 nM.
Consider `Cc1cc(N2CCN(C(=O)C(c3ccccc3)c3ccccc3)[C@H](C(=O)O)C2)n(Cc2ccccc2)n1` [Compound 16, (S)-4-(1-benzyl-3-methyl-1H-pyrazol-5-yl)-1-(2,2-diphenylacetyl)piperazine-2-carboxylic acid], for which the IC50 worked out at 40.3 nM.
Take `Cc1cc(N2CCN(C(=O)C(c3ccccc3)c3ccccc3)[C@H](C(=O)O)C2)n(-c2ccccc2)n1` [Compound 7, (3)-1-(2,2-diphenylacetyl)-4-(3-methyl-1-phenyl-1H-pyrazol-5-yl)piperazine-2-carboxylic acid]: the IC50 came to 155 nM.
